Patent publication US20230391772A1, “METHODS AND COMPOSITIONS FOR TARGETED PROTEIN DEGRADATION” (Ranok Therapeutics (Hangzhou) Co. Ltd., priority 2020, published 2023)

Legend:
KRAS(G12C) [1] = target: T1, KRAS(G12C) (Homo sapiens, UniProt P01116, G12C); assay: KRAS(G12C) Western blot protein degradation assay in LU65A cells; format: cell-based; parameters: LU65A human lung cancer cell line, which expresses KRAS(G12C); host or cells: LU65A; conditions: 6 hr
Description: The following cancer cell lines were employed: BT-474 human breast carcinoma (ATCC, #HTB-20); MIA PaCa-2 human pancreatic carcinoma [2 copies KRAS(G12C)](ATCC, #CRL-1420); NCI-H23 human non-small cell lung cancer [1 copy KRAS(G12C)](ATCC, #CRL-5800); NCI-H358 human non-small cell lung cancer [1 copy KRAS(G12C)](ATCC, #CRL-5807); LU65A human lung carcinoma (Pharmaron, Beijing, China). Cell lines were cultured essentially according to ATCC and Pharmaron recommendations.
KRAS(G12C) Western Blot Protein Degradation Assay
The MIA PaCa-2 human pancreatic carcinoma cell line and LU65A human lung cancer cell line, which expresses KRAS(G12C), were seeded in 6- or 12-well tissue culture plates, and after 1 hr, test compounds were added at various concentrations and incubated at 37° C./5% CO2 for 48 hr (MIA Paca-2) and 6 hr (LU65A) respectively. Cells were then washed with cold PBS, aspirated and cold RIPA buffer containing a protease/phosphatase inhibitor cocktail was added to lyse cells. After centrifugation, the total protein concentrations of cell lysates were determined using the BCA protein assay. Samples were normalized for equivalent protein concentrations, 5×SDS-PAGE loading buffer added and denatured at 100° C. for 10 min. 20 μl of each sample/well was loaded on a SDS-PAGE gel and electrophoresed for 20 min at 80 V, then 120 V for 1.5 hr. Gels were then electroblotted to nitrocellulose membranes using a wet-transfer method at 250 mA for 2.5 hr. Membranes were incubated with blocking buffer for 1 hr and washed 3 times with TBST for 5 min. Membranes were then incubated with anti-KRAS (Sigma-Aldrich, #SAB1404011) and anti-β-Actin monoclonal antibodies (Cell Signaling Technology, #3700) diluted in blocking buffer at 4° C. overnight per the manufacturer's recommendations. After washing 3 times, blots were incubated with appropriately labeled secondary antibodies for 1 hr at room temperature and washed again. Fluorescence imaging and quantitation was performed using a LI-COR Odyssey. Results was analyzed using GraphPad Prism 7 software. Compound degradation of was determined by the following equation and DC50 values (the concentration at which 50% of the maximal degradation of KRAS occurs) calculated using GraphPad Prism 7 software:
% Inhibition=100−(D−B)/(S−B)*100%. • S: Fluorescence intensity of cells with antibody • D: Fluorescence intensity of compound-treated cells with antibody • B: Fluorescence intensity of cells without antibody

KRAS(G12C) [2] = target: T1, KRAS(G12C); assay: KRAS(G12C)/SOS1 homogeneous time-resolved fluorescence (HTRF) assay; parameters: purchased Cisbio 63ADK000CB16PEG; conditions: absence of GTP, 4° C. for 3 hr, read-out: KRAS (G12C) binding
Summary of the method: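 HTRF kit measuring compound-induced block of KRAS(G12C)-SOS1 interaction without GTP. Compounds tested as 3-fold serial dilutions down to 1.02 nM, incubated with reaction components 3 h at 4 °C in sealed plates before fluorescence read.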

[3] = tested on: MIA PaCa-2 human pancreatic carcinoma; assay: MIA PaCa-2 CCK-8 proliferation assay; format: cell-based; conditions: Homo sapiens, MIA PaCa-2, 72 h, MIA PaCa-2 cells
Summary of the method: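 Three KRAS(G12C) lines are used, MIA PaCa-2 at two mutant copies and the NSCLC lines NCI-H358 and NCI-H23 at one. Each compound is titrated 3-fold from 20 μM to 1.02 nM, and proliferation is scored by CCK-8.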

T1 sequence (P01116 1-188 isoform P01116-2 G12C): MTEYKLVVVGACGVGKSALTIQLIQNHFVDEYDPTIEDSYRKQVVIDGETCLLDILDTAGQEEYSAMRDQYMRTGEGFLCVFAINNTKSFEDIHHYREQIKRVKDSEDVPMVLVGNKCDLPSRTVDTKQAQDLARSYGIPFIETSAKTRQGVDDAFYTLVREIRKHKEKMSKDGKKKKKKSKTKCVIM

DC50 (KRAS(G12C) [1]) [nM] | IC50 (KRAS(G12C) [2]) [nM] | EC50 [3] [nM] | Compound
100 to 1000 | < 100 | 100 to 1000 | C=CC(=O)N1CCN(c2nc(OC[C@@H]3C[C@H](N4CCN(Cc5ccc(-n6c(O)nnc6-c6cc(C(C)C)c(O)cc6O)cc5)CC4)CN3C)nc3c2CCN(c2cccc4cccc(C)c24)C3)C[C@@H]1CC#N [Compound 279, 2-[(2S)-4-(2-{[(2S,4S)-4-[4-({4-[3-(2,4-dihydroxy-5-isopropylphenyl)-5-hydroxy-1,2,4-triazol-4-yl]phenyl}methyl)piperazin-1-yl]-1-methylpyrrolidin-2-yl]methox-y}-7-(8-methylnaphthalen-1-yl)-5H,6H,8H-pyrido[3,4-d]pyrimidin-4-yl)-1-(prop-2-enoyl)piperazin-2-yl]acetonitrile]
> 1000 | < 100 | 100 to 1000 | C=CC(=O)N1CCN(c2nc(OC[C@@H]3C[C@H](N4CCN(Cc5ccc(-n6c(O)nnc6-c6cc(C(C)C)c(O)cc6O)cc5)CC4)CN3C)nc3c2CCN(c2cccc4ccc(F)c(Cl)c24)C3)C[C@@H]1CC#N [Compound 277, 2-[(2S)-4-[7-(8-chloro-7-fluoronaphthalen-1-yl)-2-{[(2S,4S)-4-[4-({4-[3-(2,4-dihydroxy-5-isopropylphenyl)-5-hydroxy-1,2,4-triazol-4-yl]phenyl}methyl)piperazin-1-yl]-1-methylpyrrolidin-2-yl]methoxy}-5H,6H,8H-pyrido[3,4-d]pyrimidin-4-yl]-1-(prop-2-enoyl)piperazin-2-yl]acetonitrile]
100 to 1000 | < 100 | 100 to 1000 | C=CC(=O)N1CCN(c2nc(OCC3(CN4CCN(Cc5ccc(-n6c(O)nnc6-c6cc(C(C)C)c(O)cc6O)cc5)CC4)CC3)nc3c2CCN(c2cccc4cccc(Cl)c24)C3)C[C@@H]1CC#N [Compound 284, 2-[(2S)-4-[7-(8-chloronaphthalen-1-yl)-2-[(1-{[4-({4-[3-(2,4-dihydroxy-5-isopropylphenyl)-5-hydroxy-1,2,4-triazol-4-yl]phenyl}methyl)piperazin-1-yl]methyl}cyclopropyl)methoxy]-5H,6H,8H-pyrido[3,4-d]pyrimidin-4-yl]-1-(prop-2-enoyl)piperazin-2-yl]acetonitrile]
> 1000 | < 100 | < 100 | C=CC(=O)N1CCN(c2nc(OC[C@@H]3C[C@H](N4CCN(CC5CCN(Cc6ccc(-n7c(C(=O)NCC)nnc7-c7cc(C(C)C)c(O)cc7O)cc6)CC5)CC4)CN3C)nc3c2CCN(c2cccc4cccc(Cl)c24)C3)C[C@@H]1CC#N [Compound 276, 4-(4-{[4-({4-[(3S,5S)-5-({[7-(8-chloronaphthalen-1-yl)-4-[(3S)-3-(cyanomethyl)-4-(prop-2-enoyl)piperazin-1-yl]-5H,6H,8H-pyrido[3,4-d]pyrimidin-2-yl]oxy}methyl)-1-methylpyrrolidin-3-yl]piperazin-1-yl}methyl)piperidin-1-yl]methyl}phenyl)-5-(2,4-dihydroxy-5-isopropylphenyl)-N-ethyl-1,2,4-triazole-3-carboxamide]
> 1000 | < 100 | < 100 | C=CC(=O)N1CCN(c2nc(OC[C@@H]3CC[C@H](CN4CCN(Cc5ccc(-n6c(C(=O)NCC)nnc6-c6cc(C(C)C)c(O)cc6O)cc5)CC4)N3C)nc3c2CCN(c2cccc4cccc(C)c24)C3)C[C@@H]1CC#N [Compound 289, 4-{4-[(4-{[(2R,5S)-5-[({4-[(3S)-3-(cyanomethyl)-4-(prop-2-enoyl)piperazin-1-yl]-7-(8-methylnaphthalen-1-yl)-5H,6H,8H-pyrido[3,4-d]pyrimidin-2-yl}oxy)methyl]-1-methylpyrrolidin-2-yl]methyl}piperazin-1-yl)methyl]phenyl}-5-(2,4-dihydroxy-5-isopropylphenyl)-N-ethyl-1,2,4-triazole-3-carboxamide]
> 1000 | < 100 | > 1000 | C=CC(=O)N1CCN(c2nc(OC[C@@H]3C[C@H](N4CCN(Cc5ccc(-n6c(O)nnc6-c6cc(C)c(O)cc6O)cc5)CC4)CN3C)nc3c2CCN(c2cccc4cccc(Cl)c24)C3)C[C@@H]1CC#N [Compound 252, 2-[(2S)-4-[7-(8-chloronaphthalen-1-yl)-2-{[(2S,4S)-4-[4-({4-[3-(2,4-dihydroxy-5-methylphenyl)-5-hydroxy-1,2,4-triazol-4-yl]phenyl}methyl)piperazin-1-yl]-1-methylpyrrolidin-2-yl]methoxy}-5H,6H,8H-pyrido[3,4-d]pyrimidin-4-yl]-1-(prop-2-enoyl)piperazin-2-yl]acetonitrile]
> 1000 | < 100 | 100 to 1000 | C=CC(=O)N1CCN(c2nc(OC[C@@H]3CC[C@H](CN4CCN(C(=O)C5CCN(Cc6ccc(-n7c(C(=O)NCC)nnc7-c7cc(C(C)C)c(O)cc7O)cc6)CC5)CC4)N3C)nc3c2CCN(c2cccc4cccc(C)c24)C3)C[C@@H]1CC#N [Compound 274, 4-(4-{[4-(4-{[(2R,5S)-5-[({4-[(3S)-3-(cyanomethyl)-4-(prop-2-enoyl)piperazin-1-yl]-7-(8-methylnaphthalen-1-yl)-5H,6H,8H-pyrido[3,4-d]pyrimidin-2-yl}oxy)methyl]-1-methylpyrrolidin-2-yl]methyl}piperazine-1-carbonyl)piperidin-1-yl]methyl}phenyl)-5-(2,4-dihydroxy-5-isopropylphenyl)-N-ethyl-1,2,4-triazole-3-carboxamide]
100 to 1000 | < 100 | 100 to 1000 | C=CC(=O)N1CCN(c2nc(OC[C@@H]3CC[C@H](CN4CCN(C(=O)C5CCN(Cc6ccc(-n7c(O)nnc7-c7cc(C(C)C)c(O)cc7O)cc6)CC5)CC4)N3C)nc3c2CCN(c2cccc4ccccc24)C3)C[C@@H]1CC#N [Compound 255, 2-[(2S)-4-(2-{[(2S,5R)-5-({4-[1-({4-[3-(2,4-dihydroxy-5-isopropylphenyl)-5-hydroxy-1,2,4-triazol-4-yl]phenyl}methyl)piperidine-4-carbonyl]piperazin-1-yl}methyl)-1-methylpyrrolidin-2-yl]methoxy}-7-(naphthalen-1-yl)-5H,6H,8H-pyri-do[3,4-d]pyrimidin-4-yl)-1-(prop-2-enoyl)piperazin-2-yl] acetonitrile]
100 to 1000 | 100 to 1000 | 100 to 1000 | C=CC(=O)N1CCN(c2nc(OC[C@@H]3C[C@H](N4CCC5(CCN(Cc6ccc(-n7c(O)nnc7-c7cc(C(C)C)c(O)cc7O)cc6)CC5)CC4)CN3C)nc3c2CCN(c2cccc4ccccc24)C3)C[C@@H]1CC#N [Compound 248, 2-[(2S)-4-(2-{[(2S,4S)-4-[9-({4-[3-(2,4-dihydroxy-5-isopropylphenyl)-5-hydroxy-1,2,4-triazol-4-yl]phenyl}methyl)-3,9-diazaspiro[5.5]undecan-3-yl]-1-methylpyrrolidin-2-yl]methoxy}-7-(naphthalen-1-yl)-5H,6H,8H-pyrido[3,4-d]pyrimidin-4-yl)-1-(prop-2-enoyl)piperazin-2-yl]acetonitrile]
100 to 1000 | < 100 | < 100 | C=CC(=O)N1CCN(c2nc(OC[C@@H]3C[C@H](N4CCN(C(=O)C5CCN(Cc6ccc(-n7c(C(=O)NCC(F)(F)F)nnc7-c7cc(C(C)C)c(O)cc7O)cc6)CC5)CC4)CN3C)nc3c2CCN(c2cccc4cccc(Cl)c24)C3)C[C@@H]1CC#N [Compound 261, 4-{4-[(4-{4-[(3S,5S)-5-({[7-(8-chloronaphthalen-1-yl)-4-[(3S)-3-(cyanomethyl)-4-(prop-2-enoyl)piperazin-1-yl]-5H,6H,8H-pyrido[3,4-d]pyrimidin-2-yl]oxy}methyl)-1-methylpyrrolidin-3-yl]piperazine-1-carbonyl}piperidin-1-yl)methyl]phenyl}-5-(2,4-dihydroxy-5-isopropylphenyl)-N-(2,2,2-trifluoroethyl)-1,2,4-triazole-3-carboxamide]
